Data taken from ChEMBL document CHEMBL5154870, “Discovery of novel glutaminase 1 allosteric inhibitor with 4-piperidinamine linker and aromatic heterocycles” (Eur J Med Chem, 2022).
The source made the active and inactive calls. The calls are words filed in the database; no cut-off is given here.

Tests used:
[1] = Metabolic stability in human liver microsomes assessed as intrinsic clearance at 10 uM by LC-MS/MS analysis; assay type: ADME, Microsome; details: read-out: CLH
[2] = target: T1, Glutaminase kidney isoform, mitochondrial (Homo sapiens, UniProt O94925); assay: Binding affinity to human GLS1 assessed as dissociation constant by surface plasmon resonance analysis
T1 sequence (O94925 whole entry): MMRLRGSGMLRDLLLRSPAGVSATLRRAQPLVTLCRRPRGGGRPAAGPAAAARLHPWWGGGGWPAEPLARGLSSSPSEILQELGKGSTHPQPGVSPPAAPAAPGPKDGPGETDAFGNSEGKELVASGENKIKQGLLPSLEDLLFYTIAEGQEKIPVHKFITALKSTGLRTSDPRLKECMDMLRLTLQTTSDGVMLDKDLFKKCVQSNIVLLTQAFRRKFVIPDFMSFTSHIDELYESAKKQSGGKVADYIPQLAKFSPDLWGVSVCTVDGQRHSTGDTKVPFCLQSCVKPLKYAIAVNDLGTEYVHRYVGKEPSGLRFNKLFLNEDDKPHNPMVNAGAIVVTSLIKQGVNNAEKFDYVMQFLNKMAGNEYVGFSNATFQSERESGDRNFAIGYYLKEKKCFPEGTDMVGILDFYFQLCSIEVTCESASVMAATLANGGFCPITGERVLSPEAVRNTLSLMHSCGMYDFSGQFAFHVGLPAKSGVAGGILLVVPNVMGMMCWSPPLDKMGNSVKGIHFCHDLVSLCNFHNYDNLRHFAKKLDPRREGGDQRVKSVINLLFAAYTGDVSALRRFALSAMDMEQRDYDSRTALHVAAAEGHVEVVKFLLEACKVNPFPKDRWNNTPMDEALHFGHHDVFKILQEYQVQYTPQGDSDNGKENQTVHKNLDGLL

H22 = assay: Antiproliferative activity against mouse H22 cells assessed as inhibition of cell proliferation measured after 72 hrs by MTT assay; assay type: functional, cell-based; details: H22, 72 h
CT26 = assay: Antiproliferative activity against mouse CT26 cells overexpressing GLS1 assessed as inhibition of cell proliferation measured after 72 hrs by MTT assay; assay type: functional, cell-based; details: CT26, 72 h
HCT-116 [3] = assay: Induction of apoptosis in human HCT-116 cells assessed as necrotic cells at 30 nM measured after 24 hrs by Annexin V-FITC/PI staining based flow cytometry method (reference value: 0.48 %); assay type: functional
HCT-116 [4] = assay: Induction of apoptosis in human HCT-116 cells assessed as necrotic cells at 50 nM measured after 24 hrs by Annexin V-FITC/PI staining based flow cytometry method (reference value: 0.48 %); assay type: functional
HCT-116 [5] = assay: Induction of apoptosis in human HCT-116 cells assessed as early apoptotic cells at 200 nM measured after 24 hrs by Annexin V-FITC/PI staining based flow cytometry method (reference value: 4.65 %); assay type: functional
[6] = AUC (0 to t) in Sprague-Dawley rat at 5 mg/kg, iv measured for 72 hrs by LC-MS/MS analysis; assay type: ADME, organism-based; parameters: dose 5 mg/kg, time 72 hrs, route iv; details: in vivo
[7] = AUC (0 to infinity) in Sprague-Dawley rat at 5 mg/kg, iv measured for 72 hrs by LC-MS/MS analysis; assay type: ADME, organism-based; parameters: time 72 hrs, dose 5 mg/kg, route iv; details: in vivo
[8] = Half life in Sprague-Dawley rat at 5 mg/kg, iv measured for 72 hrs by LC-MS/MS analysis; assay type: ADME, organism-based; details: in vivo
[9] = MRT (0 to infinity) in Sprague-Dawley rat at 5 mg/kg, iv measured for 72 hrs by LC-MS/MS analysis; assay type: ADME, organism-based; details: in vivo
[10] = MRT (0 to infinity) in Sprague-Dawley rat at 10 mg/kg, ip measured for 72 hrs by LC-MS/MS analysis; assay type: ADME, organism-based; details: in vivo
[11] = Apparent volume of distribution in Sprague-Dawley rat at 10 mg/kg, ip measured for 72 hrs by LC-MS/MS analysis; assay type: ADME, organism-based; details: in vivo
[12] = Apparent clearance in Sprague-Dawley rat at 10 mg/kg, ip measured for 72 hrs by LC-MS/MS analysis; assay type: ADME, organism-based; details: in vivo
HCT-116 [13] = assay: Antitumor activity against human HCT-116 cells xenografted in BALB/c SPF mouse assessed as tumor growth inhibition at 50 mg/kg, ip administered BID for 21 days; assay type: functional; details: HCT-116, 504 h, time 21 day, read-out: TGI
HCT-116 [14] = assay: Antitumor activity against human HCT-116 cells xenografted in BALB/c SPF mouse assessed as tumor growth inhibition at 100 mg/kg, ip administered BID for 21 days; assay type: functional; details: Mus musculus, HCT-116, 504 h, time 21 day, read-out: TGI
[15] = Toxicity in BALB/c SPF mouse xenografted with human HCT-116 cells assessed as body weight loss at 50 to 100 mg/kg, ip administered BID for 21 days; assay type: organism-based; details: in vivo, 504 h, dose 50-100 mg/kg, time 21 day
[16] = Toxicity in nude mouse xenografted with human HCT-116 cells assessed as heart damage by measuring edema and atrophy at 50 to 100 mg/kg, ip measured after 21 days by H and E staining based analysis; assay type: organism-based; details: in vivo, 504 h, dose 50-100 mg/kg, time 21 day
[17] = Toxicity in nude mouse xenografted with human HCT-116 cells assessed as liver damage by measuring edema and atrophy at 50 to 100 mg/kg, ip measured after 21 days by H and E staining based analysis; assay type: organism-based; details: in vivo, 504 h, dose 50-100 mg/kg, time 21 day
[18] = Toxicity in nude mouse xenografted with human HCT-116 cells assessed as spleen damage by measuring edema and atrophy at 50 to 100 mg/kg, ip measured after 21 days by H and E staining based analysis; assay type: organism-based; details: in vivo, 504 h, dose 50-100 mg/kg, time 21 day
[19] = Toxicity in nude mouse xenografted with human HCT-116 cells assessed as lung damage by measuring edema and atrophy at 50 to 100 mg/kg, ip measured after 21 days by H and E staining based analysis; assay type: organism-based; details: in vivo, 504 h, dose 50-100 mg/kg, time 21 day
[20] = Toxicity in nude mouse xenografted with human HCT-116 cells assessed as kidney damage by measuring edema and atrophy at 50 to 100 mg/kg, ip measured after 21 days by H and E staining based analysis; assay type: organism-based; details: in vivo, 504 h, dose 50-100 mg/kg, time 21 day
[21] = target: T2, Glutaminase kidney isoform, mitochondrial (Homo sapiens) (UniProt O94925); details: filed as negative allosteric modulator
T2 sequence (whole entry): T1 sequence (O94925 whole entry)
Description: Binding affinity to human GLS1 assessed as stabilization of protein by measuring change in melting temperature by protein thermal shift assay

[22] = target: T2, Glutaminase kidney isoform, mitochondrial (Homo sapiens); details: HCT-116, filed as negative allosteric modulator, dose 100-300 nM, time 12.0 hrs
[23] = target: T2, Glutaminase kidney isoform, mitochondrial (Homo sapiens); details: HCT-116, filed as negative allosteric modulator, dose 100-300 nM, time 12.0 hrs; remark: listed apart in the source
[24] = target: T2, Glutaminase kidney isoform, mitochondrial (Homo sapiens); details: HCT-116, filed as negative allosteric modulator, dose 100-300 nM, time 12.0 hrs; remark: listed apart in the source
[25] = target: T2, Glutaminase kidney isoform, mitochondrial (Homo sapiens); details: HCT-116, filed as negative allosteric modulator, dose 100-300 nM, time 12.0 hrs; remark: listed apart in the source
[26] = target: T2, Glutaminase kidney isoform, mitochondrial (Homo sapiens); details: HCT-116, filed as negative allosteric modulator, dose 100-300 nM, time 12.0 hrs; remark: listed apart in the source
[27] = target: T2, Glutaminase kidney isoform, mitochondrial (Homo sapiens); details: HCT-116, filed as negative allosteric modulator, dose 100-300 nM, time 12.0 hrs; remark: listed apart in the source

For `O=C(Cc1ccccc1)Nc1nnc(NC2CCN(c3nnc(NC(=O)c4nccn4Cc4ccc(C(F)(F)F)cc4)s3)CC2)s1`, the microsomal CLint at 10 µM [1] was 8.95 µL/min/mg, the Kd [2] was 52 nM and the IC50 (H22) was 10800 nM. It also gave an IC50 (CT26) of 320 nM, an Activity (HCT-116 [3]) of 0.048% and an Activity (HCT-116 [4]) of 0.01%. The Activity (HCT-116 [5]) was 82.49%, the AUC(0-t) at 72 h [6] was 6930 ng·h/mL and the AUC(0-inf) [7] was 7310 ng·h/mL. The half-life [8] was 7.44 h, the MRT inf [9] was 4.97 h and the MRT inf [10] was 13 h. The Vd/F [11] was 36.1 L/kg, the CL/F [12] was 48.8 mL/min/kg and the inhibition in vivo at 50 mg/kg (HCT-116 [13]) was 35.5%. The inhibition in vivo at 100 mg/kg (HCT-116 [14]) was 47.5%, the Activity [15] was “Non-Toxic” and the Activity [16] was “Non-Toxic”. The Activity [17] was “Non-Toxic”, the Activity [18] was “Non-Toxic” and the Activity [19] was “Non-Toxic”. The Activity [20] was “Non-Toxic”, the ΔTm [21] was 14.9 °C and the inhibition [22] was “Active”. The inhibition [23] was “Active”, the inhibition [24] was “Active” and the inhibition [25] was “Active”. For the same molecule, the inhibition [26] was “Active” and the inhibition [27] was “Active”.
